Assay results taken from patent US6365175B1 (Unilever Patent Holdings, priority 1998, dated 2002).
Entries after “also recorded” stand apart in the source; their conditions may differ.

What was measured:
[1] = tested on: intracellular adhesion molecules (ICAM); experiment: Glutathione (GSH) depletion model in fibroblasts (BSO and PMA), ICAM; type: cell-based, human; settings: BSO and PMA treated fibroblasts, FIG. 3
Procedure: (§1) Primary human foreskin fibroblasts at passage 2 (P2) were seeded into 96-well plates at 10000 cells/well and maintained for 24 hours in an atmosphere of 5% carbon dioxide in Dulbeccos Modified Eagles Medium (DMEM) supplemented with 10% foetal calf serum. […] Phorbal myristate acetate (PMA) in ethanol/cell media ([…]) was added to the media and the cells incubated for a futher 24 hours. PMA represents an external stressor which induces oxidative stress and inflammatory responses in cells. The fibroblasts/media were then analysed as described below immediately or snap frozen in liquid nitrogen and stored at −70° C. for future analysis. The cells were then counted to ensure no effect on cell number.
Media were discarded and cells washed with Dulbecco PBS. To the washed cells, 150 μl 0.1% Triton X-100 (Sigma) was added for 3 minutes to extract ICAM from cell membrane. The extracts were transferred to Eppendoff centrifuge tubes and centrifuged at 1000 g for 2 min to remove cell debris. A volume of 100 μl supernatant was used for ICAM assay. The soluble ICAM-1 was assessed with commercially available immunoenzymometric assay kit (R&D Systems). Concentrations of ICAM-1 in the samples were determined based on parallelly running standard curve.
L-Buthionine sulfoximine (BSO, Sigma), a specific inhibitor of γ-glutamylcysteine synthetase, was used to deplete intracellular GSH levels. This depletion model is based on the natural degradation of GSH while synthesis is inhibited. BSO is added to the fibroblast cell media after 24 hours (0.25 mM), this is predissolved in DMSO (DMSO, final concentration <1%). In addition, where stated, the antioxidants Epigallocatechingallate (ECGC) and Quercetin were also added to the media after 24 h. The former was dissolved directly in the media, quercetin was initially dissolved in ethanol, this was then diluted 500 fold into the media.

decorin = experiment: Dot blot assay for decorin protein in dermal fibroblast conditioned medium; type: cell-based, human; settings: for Decorin (% of control): fibroblasts, mean ± SD; for decorin levels in fibroblasts: single agent, in words
Procedure: Primary human foreskin fibroblasts at passage 2 (P2) were seeded into 12-well plates at 10000 cells/cm^2 and maintained for 24 hours in an atmosphere of 5% carbon dioxide and 4% oxygen in Dulbeccos Modified Eagles Medium (DMEM) supplemented with 10% foetal calf serum. After this time the cells were washed with serum free DMEM and then incubated in fresh serum free DMEM for a further 60 hours. The fibroblast monolayers were then washed again with serum free DMEM. […] This fibroblast conditioned medium was either analysed immediatedly or snap frozen in liquid nitrogen and stored at −70° C. for future analysis. The cells were then counted and data from the dot-blot analysis subsequently standardised to cell number.
Samples of conditioned medium from dermal fibroblasts treated with vehicle (as a control) or test reagents were supplemented with 20 mM dithiothreitol (1:10 dilution of 200 mM stock solution) and 0.1% sodium dodecylsulphate (1:100 dilution of 10% stock solution), mixed well and then incubated at 75° C. for 2 minutes. A standard for the assay was generated by serial dilution of neat fibroblast conditioned medium from fibroblasts seeded at 10000 cells/cm^2 in a 175 cm^2 flask and maintained in serum free DMEM as described above. Assay samples were subsequently applied in triplicate to a prewetted sheet of Immobilon-P transfer membrane using the 96-well Bio-Dot Apparatus from Bio-Rad as described in the manufacturers guidelines. Approximately 200 μl of medium was applied per well. The medium was allowed to filter through the membrane under gravity (30 minutes) after which the membrane was washed twice with PBS (200 μl). These PBS washes were allowed to filter through the membrane under gravity (2×15 minutes). The Bio-Dot apparatus was then attached to a vacuum manifold and a third and final PBS wash carried out under suction. The apparatus was disassembled, the membrane removed and quickly cut as required before being placed in blocking buffer overnight at 4° C. Membranes prepared for decorin analysis were blocked with 3% (w/v) bovine serum albumin (BSA)/ 0.1% (v/v) Tween 20 in phosphate buffered saline (PBS), whilst those for procollagen-I analysis were blocked with 5% (w/v) non fat dried milk powder/0.05% Tween 20 in PBS. The following day, the membranes were probed with 1:10000 dilution of primary antibodies to human decorin (rabbit polyclonal; Biogenesis) for 2 hours at room temperature. The membranes were subsequently washed with TBS/0.05% Tween 20 (3×5 minutes) and then incubated with 1:1000 dilution of ^125I-conjugated anti-rat or anti-rabbit F(ab′)2 fragments (Amersham) as required for 1 hour at room temperature. Following this the Immobilon strips were again washed with TBS/Tween 20 (3×5 minutes) before being allowed to dry in air at room temperature. The dried membranes were wrapped in cellophane and exposed to a Molecular Dynamics storage phosphor screen for 16-18 hours. At the end of this time the exposed screen was scanned by a phosphorimager (Molecular Dynamics Phosphorimager SF) using ImageQuant™ software. Dot intensity was assessed by computer-assisted image analysis using the quantification tools in ImageQuant™, standardised to cell number and the effects of various test reagents on decorin and procollagen-I synthesis were determined relative to a vehicle treated control value of 100 arbitrary units.

[2] = tested on: Prostaglandin E2 (PGE2) production; experiment: PMA-induced PGE2 production, fibroblast cell assay; type: cell-based, human; settings: FIG. 1
Procedure: (§2) It is emphasized that the anti-inflammatory effects were determined by in vitro tests wherein the production of intracellular adhesion molecules (=ICAM) and Prostaglandin E2 (=PGE2) production by the human skin fibroblasts is measured after being induced by the inflammatory modulus phorbyl myristyl acetate (PMA). Effects on basal PGE2 levels in keratinocytes are also measured. A reduction of the levels of ICAM and PGE2 is indicative for the anti-inflammatory effect.
Primary human foreskin fibroblasts at passage 2 (P2) were seeded into 96-well plates at 10000 cells/well and maintained for 24 hours in an atmosphere of 5% carbon dioxide in Dulbeccos Modified Eagles Medium (DMEM) supplemented with 10% foetal calf serum. […] The fibroblasts/media were then analysed as described below immediately or snap frozen in liquid nitrogen and stored at −70° C. for future analysis. The cells were then counted to ensure no effect on cell number.
Volumes of 50 μl culture medium were taken for PGE2 assay after gently shaking the culture plate. PGE2 levels in the medium were determined with a Biotrak PGE2 immunoassay kit (Amersham, UK). The assay is based on the competition between unlabelled PGE2 in the sample and a fixed quantity of horseradish peroxidase labelled PGE2 for a limited amount of fixed PGE2 specific antibody. […]

[3] = tested on: intracellular adhesion molecules (ICAM); experiment: ICAM-1 assay in fibroblasts, basal and PMA-induced; type: cell-based, human; settings: FIG. 2
Procedure: as §2
as §1, with “PMA represents an external stressor which induces oxidative stress and inflammatory responses in cells.” left out
Media were discarded and cells washed with Dulbecco PBS. […] The soluble ICAM-1 was assessed with commercially available immunoenzymometric assay kit (R&D Systems). Concentrations of ICAM-1 in the samples were determined based on parallelly running standard curve.

[4] = tested on: basal PGE2 levels in keratinocytes; experiment: Keratinocyte PGE2 assay; type: cell-based; settings: 0.1 μM and 1 μM, 24 h
Source text: The medium was then removed and assayed for the pro-inflammatory PGE2 content by Enzyme-linked immunoassay.

SMILES | ICAM response ([1]; antioxidant alone 10 μM) | Decorin (% of control) (decorin; 1 μg / ml) | Decorin (% of control) (decorin; 2.5 μg / ml) | Decorin (% of control) (decorin; 5 μg / ml) | decorin levels in fibroblasts (decorin) | also measured
O=C(O[C@@H]1Cc2c(O)cc(O)cc2O[C@@H]1c1cc(O)c(O)c(O)c1)c1cc(O)c(O)c(O)c1 [EGCG, Epigallocatechingallate] | decrease the ICAM response | 167.5 ± 11.8 % of control | 188.6 ± 9.4 % of control | 258.2 ± 6.1 % of control | can also exert this effect | 
O=C(O)c1cc(O)c(O)c(O)c1 [Gallic acid] |  | 136.9 ± 4.2 % of control | 163.4 ± 6.5 % of control | 161.8 ± 6.6 % of control | can also exert this effect | 
CCCCCCCCCCC/C=C\CCCCC(=O)O [Petroselinic acid] |  |  |  |  | boost decorin levels | PGE2 response ([2]; PMA treated cells pre-incubated with 0.1, 1.0, 10 and 100 μM): significant decrease; inflammatory response as measured by PGE2 production ([2]; PMA-challenged fibroblasts, 0.1 μM): dramatically reduces; production of ICAM / ICAM response ([3]; PMA-stimulated fibroblasts pre-incubated with 0.1, 1.0, 10 and 100 μM): reduction in ICAM; also recorded: significant decrease; production of ICAM ([3]; basal condition (control), fibroblasts, 100 μM): reduction in ICAM; ICAM response ([1]; petroselinic acid alone 0.01 μM): no effect; basal levels of secreted PGE2 ([4]; FIG. 5): significantly reduce; basal levels of secreted PGE2 ([4]; FIG. 5, listed as petroselinic acid): reduced the basal levels
O=c1c(O)c(-c2ccc(O)c(O)c2)oc2cc(O)cc(O)c12 [Quercetin] | decrease the ICAM response |  |  |  |  | 
O=c1c(-c2ccc(O)cc2)coc2cc(O)ccc12 [diadzein] |  |  |  |  | can also exert this effect | 
O=c1c(-c2ccc(O)cc2)coc2cc(O)cc(O)c12 [genistein] |  |  |  |  | can also exert this effect | 
